We go through one compound from patent US20110300240A1, “CAJANUS EXTRACTS AND GLUCOSAMINE FOR INFLAMMATORY DISORDERS” (priority 2009, published 2011).

Experiment [1] relates to RAW264.7 murine macrophage cell line, PGE2 production. Briefly: Inhibition of PGE2 synthesis in LPS-stimulated RAW264.7 macrophages (EIA). Format: cell-based. As to the method: (§1) The anti-inflammatory effect of a mixture of Cajanus in combination with glucosamine sulfate was determined in cellular assays by measuring the inhibition of the synthesis of nitric oxide and/or pro-inflammatory prostaglandins (PGE2). PGE2 plays a critical role in the inflammation process, while nitric oxide (NO) is a hallmark of inflammation in various chronic inflammatory diseases including various forms of arthritis, gastro-intestinal diseases and metabolic syndrome X (Creamer P et al 1997 Lancet 350:503-508; Vuolteenaho et al. 2007 Scand. J Rheumatology 36:247-258).
(§2) The effects on the inflammatory response were tested in cellular assays using a murine macrophage cell line, RAW264.7. […]
(§3) Concentrations of nitrite were determined by the Griess reaction using sodium nitrite as standard. Briefly, 50 ul of supernatant was mixed with Griess reagent 1 (25 uL) and Griess reagent 2 (25 uL), centrifuged and the optical density at 540 nm determined. PGE2 secreted into the cell culture medium was determined by EIA obtained from Cayman Chemicals (Ann Harbor, Wis., USA) and used according to the manufacturer's instructions. […] IC50 values for LPS-stimulated cells were calculated using a […] least-square fitting equation [y=A+((B−A)/(1+((C−x)̂D))] for best-fit curves (Excel fit software program).

Experiment [2] deals with RAW264.7 murine macrophage cell line, nitric oxide production. Briefly: Inhibition of nitric oxide production in LPS-stimulated RAW264.7 macrophages (Griess reaction); isobologram for combinations. Format: cell-based. As for the experimental part:
as §1, §2
as §3, with “program). […]” for “program).”

[3] abbreviates: Mus musculus, single substances, LPS 1 ug/ml, 24 hours, RAW264.7.

Where only a bound is given, the exact number is not on record here.

As to `N[C@H]1C(O)O[C@H](CO)[C@@H](O)[C@@H]1O.O=S(=O)(O)O` (stereo partly shown) [Glucosamine sulfate], the “effect on PGE2 production (in words)” value in experiment [1] (LPS-stimulated RAW264.7) was “no or only a marginal anti-inflammatory”. For the same compound, the IC50 in experiment [1] (setting [3]) and in experiment [2] (setting [3]) was above 100 µg/mL throughout. Besides, the “effect on NO production (in words)” value in experiment [2] (LPS-stimulated RAW264.7) is “no or only a marginal anti-inflammatory”.
